Data as given in patent US9879034B2, “Near-infrared absorption composition, cured film, near-infrared cut filter, solid-state imaging device, infrared sensor, and compound” (FUJIFILM Corporation, priority 2015, dated 2018).

How the values were obtained:
[1] = Maximum absorption wavelength of compound solution (UV-1800); type: physicochemical; design: unit: nm; settings: dissolved in tetrahydrofuran, 1 g/L
Method: According to the invention, the value of the maximum absorption wavelength is obtained as follows: a compound represented by Formula (1) is dissolved in tetrahydrofuran to prepare a solution with a concentration of 1 g/L, and an absorption spectrum of the solution obtained by dissolving the compound is measured in a wavelength range of 350 nm to 1,200 nm using UV-1800 manufactured by Shimadzu Corporation.
Each compound was dissolved in tetrahydrofuran to prepare a solution with a concentration of 1 g/L. Next, the absorption spectrum of the solution obtained by dissolving each compound was measured using UV-1800 manufactured by Shimadzu Corporation, and a maximum absorption wavelength (λmax) was measured.

[2] = Solubility of compound to solvent at 25° C.; type: physicochemical; settings: for Solubility Cyclohexanone / Solubility PGMEA / Solubility Toluene: 25° C.; for Solubility PGMEA: propylene glycol monomethyl ether acetate; for Solubility Cyclohexanone / solubility of the compound to each solvent (in words): cyclohexanone; for solubility of the compound to each solvent (in words): PGMEA; for Solubility Toluene / solubility of the compound to each solvent (in words): toluene
Method: The solubility of each compound to each solvent (cyclohexanone, propylene glycol monomethyl ether acetate (PGMEA), and toluene) at 25° C. was evaluated based on the following standards.
A: The solubility of the compound to the solvent at 25° C. is 2 mass % or greater.

Row | SMILES | Maximum Absorption Wavelength [1] | Solubility Cyclohexanone [2] | Solubility PGMEA [2] | Solubility Toluene [2] | solubility of the compound to each solvent (in words) [2]
1 | CC(C)CCCC(C)CCc1ccc(B2N=c3/c(=C4\C(=O)C(c5ccc6cccc7c6c5NB(c5ccc(CCC(C)CCCC(C)C)cc5)N7)=C4O)ccc4cccc(c34)N2)cc1 (racemic) [SQ-2] | 823 | A (The solubility of the compound to the solvent at 25 °C is 2 mass % or greater.) | A (The solubility of the compound to the solvent at 25 °C is 2 mass % or greater.) | A (The solubility of the compound to the solvent at 25 °C is 2 mass % or greater.) | 
2 | C=CCCCCCCCCOc1ccccc1B1N=c2/c(=C3\C(=O)C(c4ccc5cccc6c5c4NB(c4ccccc4OCCCCCCCCC=C)N6)=C3O)ccc3cccc(c23)N1 [SQ-11] | 828 | A (The solubility of the compound to the solvent at 25 °C is 2 mass % or greater.) | B (The solubility of the compound to the solvent at 25 °C is 1 mass % to less than 2 mass %.) | A (The solubility of the compound to the solvent at 25 °C is 2 mass % or greater.) | 
3 | COCCOCCOCCOc1ccc(B2N=c3/c(=C4\C(=O)C(c5ccc6cccc7c6c5NB(c5ccc(OCCOCCOCCOC)cc5)N7)=C4O)ccc4cccc(c34)N2)cc1 [SQ-5] | 823 | B (The solubility of the compound to the solvent at 25 °C is 1 mass % to less than 2 mass %.) | A (The solubility of the compound to the solvent at 25 °C is 2 mass % or greater.) | B (The solubility of the compound to the solvent at 25 °C is 1 mass % to less than 2 mass %.) | 
4 | CCCCCCCCCC(CCCCCCCCC)B1N=c2/c(=C3\C(=O)C(c4ccc5cccc6c5c4NB(C(CCCCCCCCC)CCCCCCCCC)N6)=C3O)ccc3cccc(c23)N1 [SQ-7] | 815 | B (The solubility of the compound to the solvent at 25 °C is 1 mass % to less than 2 mass %.) | B (The solubility of the compound to the solvent at 25 °C is 1 mass % to less than 2 mass %.) | B (The solubility of the compound to the solvent at 25 °C is 1 mass % to less than 2 mass %.) | 
5 | CC(C)(C)c1ccc(B2N=c3/c(=C4\C(=O)C(c5ccc6cccc7c6c5NB(c5ccc(C(C)(C)C)cc5)N7)=C4O)ccc4cccc(c34)N2)cc1 [Compound R-1, reference compound] | 827 | D (The solubility of the compound to the solvent at 25 °C is less than 0.5 mass %.) | D (The solubility of the compound to the solvent at 25 °C is less than 0.5 mass %.) | D (The solubility of the compound to the solvent at 25 °C is less than 0.5 mass %.) | did not have sufficient solubility
6 | CCCCCCCCCC(CCCCCCCCC)Oc1ccc(B2N=c3/c(=C4\C(=O)C(c5ccc6cccc7c6c5NB(c5ccc(OC(CCCCCCCCC)CCCCCCCCC)cc5)N7)=C4O)ccc4cccc(c34)N2)cc1 [SQ-4] | 823 | B (The solubility of the compound to the solvent at 25 °C is 1 mass % to less than 2 mass %.) | B (The solubility of the compound to the solvent at 25 °C is 1 mass % to less than 2 mass %.) | A (The solubility of the compound to the solvent at 25 °C is 2 mass % or greater.) | 
7 | CCCCCCCCCCOc1ccccc1B1N=c2/c(=C3\C(=O)C(c4ccc5cccc6c5c4NB(c4ccccc4OCCCCCCCCCC)N6)=C3O)ccc3cccc(c23)N1 [SQ-6] | 828 | B (The solubility of the compound to the solvent at 25 °C is 1 mass % to less than 2 mass %.) | B (The solubility of the compound to the solvent at 25 °C is 1 mass % to less than 2 mass %.) | A (The solubility of the compound to the solvent at 25 °C is 2 mass % or greater.) | 
8 | CCC1(CC)N=c2/c(=C3\C(=O)C(c4ccc5cccc6c5c4NC(CC)(CC)N6)=C3O)ccc3cccc(c23)N1 [Compound R-2, reference compound] | 807 | C (The solubility of the compound to the solvent at 25 °C is 0.5 mass % to less than 1 mass %.) | C (The solubility of the compound to the solvent at 25 °C is 0.5 mass % to less than 1 mass %.) | B (The solubility of the compound to the solvent at 25 °C is 1 mass % to less than 2 mass %.) | did not have sufficient solubility
